# Test results as given in US6710043B1, “Amide compounds” (Fujisawa Pharmaceutical Co., Ltd., priority 1999, dated 2004).
# Test system: Male Fischer 344 rats
# Assay: Penile Erection in Rat
# Assay type: in vivo
# Conditions: male Fischer 344 rats (n=7), observed for 60 minutes, mean number
# Procedure: (This test was carried out according to a similar manner to that described in Jpn. J. Pharmacol., Vol. 64, 147-153 (1994))
# Male Fischer 344 rats at the age of 8 weeks (n=7) were used. All rats were handled 3 minutes a day for three successive days before the tests. The rats were tested in groups of seven and various doses of the test compound were given in semi-randomized order. The test compounds were suspended in 0.5% methyl-cellulose immediately before use, and given intraperitoneally in a volume of 1 ml/kg just before the start of test. […] A mirror was situated behind each box […]. Data was expressed as a mean number.
SMILES,Penile Erection (dose 1 mg/kg intraperitoneally),Penile Erection (dose 0.32 mg/kg intraperitoneally)
"CC(=O)N1CCN(C(=O)Nc2ccc(F)cc2)CC1 [Example 2, 1-acetyl-4-(4-fluorophenylcarbamoyl)piperazine]",1.14 number/hr,–
"O=C(NC1CCN(C(=O)C2CC2)CC1)c1ccc(F)cc1 [Example 19, N-(1-cyclopropylcarbonylpiperidin-4-yl)-4-fluorobenzamide]",–,0.75 number/hr
